Source: US20180265934A1, “COINCIDENCE REPORTER GENE SYSTEM” (The United States of America, as represented by the …, priority 2013, published 2018)
Counter-ions that a name gives are not always drawn. Like-named read-outs stand apart in the source and are kept apart here. Where a SMILES comes first, the peptide text is derived from it. The star is where a group is joined. Cbz = O=C(OCc1ccccc1)*

How the values were obtained:
[1] = test system: cAMP-response element (CRE) / CREB pathway; experiment: LOPAC1280 qHTS, 4×CRE-driven FLuc-P2A-RLuc coincidence reporter (pCI-6.24) in GripTite 293 MSR cells; type: cell-based
Description: This protocol measures bioluminescence derived from both FLuc and RLuc expression from a single assay. […] Sixteen hours after transfection, cells were trypsinized and then dispensed at 2,000 cells/20 μL/well in 384-well tissue culture treated white/solid bottom plates (Greiner Bio-One North America, Monroe, N.C.). The assay plates were incubated at 37° C. for 10 hours before adding the DUAL-GLO detection reagent (Promega). Luminescence from luciferase activity was detected by using a VIEWLUX plate reader (PerkinElmer, Waltham, Mass.).
Sixteen hours after transfection, cells were trypsinized and then dispensed at 500 cells/4 μL/well in 1,536-well tissue culture treated white/solid bottom plates (Greiner Bio-One North America) using a multidrop combi dispenser (Thermo Fisher Scientific). […] The assay plates were incubated at 37° C. for 10 hours before adding the DUAL-GLO detection reagent (3.5 μL+3.5 μL for each well) (Promega). Luminescence from luciferase activity was detected by using VIEWLUX (PerkinElmer). Each experimental plate contained forskolin as a positive control and DMSO as a negative control. Percentage activity was defined as the percentage signal relative to forskolin (100%) and DMSO (0%).

[2] = test system: PARK2 (Parkin) gene expression; experiment: Compound library screening, Parkin coincidence reporter cell line (FLuc-P2A-NLuc in PARK2 locus, BE(2)-M17 cells), 1536-well; type: cell-based, human; conditions: 24 h, titration
Description: Construction of the Parkin coincidence reporter cell line by TALEN-mediated genome editing was carried out as follows. To generate a double-strand cleavage of the genomic DNA in the first codon of the PARK2 gene, constructs encoding transcription activator-like effector nuclease (TALEN) pairs (Right and Left) encoding components of the heterodimeric FokI nuclease were generated as described by Huang et al., Nature Biotechnology, 29: 699-700 (2011). The TALEN pair was designed to generate a double-strand cleavage at or near the first translation codon (ATG) within the Parkin gene. These constructs were transfected with Lipofectamine LTX (Life Technologies) into BE(2)-M17 cells (ATCC) […] along with a GFP-expressing marker plasmid and the coincidence reporter donor plasmid. After 48 hours of incubation in a tissue culture incubator, GFP-positive cells were sorted by FACS analysis and single clones were isolated and expanded. Once sufficient cell populations for each clone were achieved, analysis of correct genomic insertion of the Fluc-P2A-NLuc-PEST-PolyA coincidence reporter cassette that replaced the “ATGATAG” (SEQ ID NO: 362) sequence at the […] of the PARK2 gene exon 1 was ascertained by PCR and DNA sequencing of genomic DNA preparations (QIAGEN).
Compound library screening in 1536-well plates was carried out as follows. The Parkin coincidence reporter cell line was seeded at a density of 2000 cell/well into white, solid bottom, tissue-culture treated (Greiner Bio-One), 1536-well microplates in a total of 5 μL/well of culture medium. After a 16 hour incubation in a tissue-culture incubator, a compound pin tool (Wako) was used to transfer 20 nL of compound dissolved in DMSO for library plates to the assay plates. Compounds were present in either a 6 or 12-point titration in the library plates. DMSO vehicle, CCCP, and PTC-124 were also added to the designated control well. After a 24 hour incubation in the tissue culture incubator, the volume in each well of both plates was reduced to 2 μL with a microplate aspiration system (BioTek) and then 2 μL of Firefly Luciferase assay reagent (Promega) was added to every well each plate and luminescent signal from each well of each plate was measured on a VIEWLUX plate reader (PerkinElmer). Following the first read, 2 μL of NanoLuc assay reagent (Promega) including a proprietary firefly luciferase inhibitor (to quench the firefly reaction) was added to every well of each plate. After a second 15 minute incubation at room temperature, the NanoLuc signal from each well of each plate was measured on the VIEWLUX. Raw luminescent signal is expressed as a % of the positive control (10 uM CCCP for NanoLuc and 500 nM PTC-124 for FLuc).

[3] = Table 6, compounds activating RLuc only; RLuc readout, 10 h; read-out: RLuc EC50
[4] = GripTite 293 MSR, 10 h, Table 5, coincident activators; FLuc readout, 10 h, ~4 nM to 57 μM; read-out: FLuc EC50
[5] = GripTite 293 MSR, 10 h, Table 5, coincident activators; RLuc readout, 10 h, ~4 nM to 57 μM; read-out: RLuc EC50
[6] = Table 5, coincident activators; FLuc readout, 10 h, ~4 nM to 57 μM; read-out: FLuc EC50
[7] = Table 5, coincident activators; RLuc readout, 10 h, ~4 nM to 57 μM; read-out: RLuc EC50
[8] = GripTite 293 MSR, 10 h, Table 6, compounds activating RLuc only; RLuc readout, 10 h; read-out: RLuc EC50
[9] = GripTite 293 MSR; Table 6, compounds activating RLuc only; RLuc readout, 10 h; read-out: RLuc EC50

| SMILES | Ratio F/R ([1]; FLuc EC50 / RLuc EC50, Table 5) | EC50 [1, 4] [µM] | EC50 [1, 5] [µM] | also measured |
| --- | --- | --- | --- | --- |
| NCCNS(=O)(=O)c1cccc2c(Cl)cccc12 [cpd 22, A3 hydrochloride] |  |  |  | EC50 [1, 3]: 15.8 µM |
| Nc1nc(Cl)nc2c1ncn2[C@@H]1O[C@H](CO)[C@@H](O)[C@H]1O [compound 11, 2-Chloroadenosine] | 1.13 | 0.43 | 0.38 |  |
| CNc1cc(NS(=O)(=O)c2ccc(N)cc2)nc(NC)n1 [compound 20, Ro 04-6790 hydrochloride] |  |  |  | EC50 [1, 3]: 2.05 µM |
| CCCCC#Cc1nc(NC)c2ncn([C@@H]3O[C@H](CO)[C@@H](O)[C@H]3O)c2n1 [compound 14, HEMADO] | 1.78 |  |  | EC50 [1, 6]: 2.69 µM; EC50 [1, 7]: 1.51 µM |
| Nc1nc(Nc2ccccc2)nc2c1ncn2[C@@H]1O[C@H](CO)[C@@H](O)[C@H]1O [compound 4, 2-Phenylaminoadenosine] | 0.95 | 10.7 | 11.2 |  |
| CC1=NS(=O)(=O)c2cc(Cl)ccc2N1 [cpd 24, Diazoxide] |  |  |  | EC50 [1, 8]: 9.15 µM |
| CNC(=O)[C@H]1O[C@@H](n2cnc3c(NCc4ccc(N)cc4)ncnc32)[C@H](O)[C@@H]1O [compound 9, AB-MECA] | 3.51 |  |  | EC50 [1, 6]: 1.51 µM; EC50 [1, 7]: 0.43 µM |
| COc1ccc(Cl)cc1C(=O)NCCc1ccc(S(=O)(=O)NC(=O)NC2CCCCC2)cc1 [cpd 23, Glybenclamide] |  |  |  | EC50 [1, 8]: 30.4 µM |
| Nc1ccc(CCNc2ncnc3c2ncn3[C@@H]2O[C@H](CO)[C@@H](O)[C@H]2O)cc1 [compound 8, N6-2-(4-Aminophenyl)ethyladenosine] | 1.56 | 1.45 | 0.93 |  |
| Oc1ccc(C=Cc2cc(O)cc(O)c2)cc1 [Resveratrol] |  |  |  | coincident reporter response (FLuc and NLuc) [2]: do not elicit a coincident reporter response; signal obtained through reporter interference [2]: FLuc signal is obtained through reporter interference |
| OC[C@H]1O[C@@H](n2cnc3c(NC4CCCC4)ncnc32)[C@H](O)[C@@H]1O [compound 6, N6-Cyclopentyladenosine] | 0.75 | 0.95 | 1.26 |  |
| C#CCOC(=O)C1=CCCN(C)C1 [cpd 18, Arecaidine propargyl ester hydrobromide (APE)] | 1.16 |  |  | EC50 [1, 6]: 3.59 µM; EC50 [1, 7]: 3.09 µM; FLuc and RLuc signal outputs in the screen ([1]; qHTS, both reporters): coincident FLuc and RLuc signal outputs |
| OC[C@H]1O[C@@H](n2cnc3c(NC4CCCCC4)ncnc32)[C@H](O)[C@@H]1O [compound 5, N6-Cyclohexyladenosine] | 0.67 | 16.9 | 25.1 |  |
| CNc1ncnc2c1ncn2[C@@H]1O[C@H](CO)[C@@H](O)[C@H]1O [compound 12, N6-Methyladenosine] | 1.26 | 16.7 | 13.3 |  |
| C[C@H](Cc1ccccc1)Nc1ncnc2c1ncn2[C@@H]1O[C@H](CO)[C@@H](O)[C@H]1O [cpd 1, R(−)-N6-(2-Phenylisopropyl)adenosine] | 3.32 |  |  | EC50 [1, 6]: 9.37 µM; EC50 [1, 7]: 2.82 µM |
| N#CC(=C(/N)Sc1ccccc1N)/C(C#N)=C(\N)Sc1ccccc1N [cpd 25, U0126] |  |  |  | EC50 [1, 9]: 8.49 µM |
| CC(C)C[C@@H](C=O)NC(=O)[C@H](CC(C)C)NC(=O)[C@H](CC(C)C)NC(=O)OCc1ccccc1 [MG-132] (Cbz-Leu-Leu-Leu-aldehyde) |  |  |  | coincident reporter response (FLuc and NLuc) [2]: do not elicit a coincident reporter response; signal obtained through reporter interference [2]: NLuc signal is obtained through reporter interference |
| OC[C@H]1O[C@H](n2cnc3c(N[C@H]4CCC[C@@H]4O)ncnc32)[C@H](O)[C@@H]1O [compound 7, GR 79236X] | 0.85 |  |  | EC50 [1, 6]: 2.69 µM; EC50 [1, 7]: 3.16 µM |
| NC(=O)COc1c(F)cc(SCCNS(=O)(=O)c2ccccc2)cc1F [cpd 21, 2,6-Difluoro-4-[2-(phenylsulfonylamino)ethylthio]phenoxyacetamide] |  |  |  | EC50 [1, 9]: 21.4 µM |
| OC[C@H]1O[C@@H](n2cnc3c(Nc4ccccc4)ncnc32)[C@H](O)[C@@H]1O [cpd 2, N6-Phenyladenosine] | 0.87 | 12.7 | 14.6 |  |
| Nc1nc(Cl)nc2c1ncn2[C@@H]1O[C@H](COP(=O)([O-])OP(=O)([O-])OP(=O)([O-])[O-])[C@@H](O)[C@H]1O.[Na+].[Na+].[Na+].[Na+] [compound 17, 2-Chloroadenosine triphosphate tetrasodium] | 2.96 | 11.5 | 3.89 |  |
| Cc1ccccc1CNc1ncnc2c1ncn2[C@@H]1O[C@H](CO)[C@@H](O)[C@H]1O [compound 3, Metrifudil] | 2.20 | 1.34 | 0.61 |  |
| O=C(c1ccc(OCCN2CCCCC2)cc1)c1c(-c2ccc(O)cc2)sc2cc(O)ccc12 [cpd 26, Raloxifene hydrochloride] |  |  |  | EC50 [1, 8]: 12 µM |
| NC(=S)c1ccc[n+]([C@@H]2OC(COP(=O)([O-])OP(=O)(O)OC[C@H]3O[C@@H](n4cnc5c(N)ncnc54)[C@H](OP(=O)(O)O)[C@@H]3O)C(O)C2O)c1 (stereo in doubt) [compound 15, Thio-NADP sodium] | 0.95 |  |  | EC50 [1, 6]: 2.39 µM; EC50 [1, 7]: 2.51 µM |
| CCNC(=O)[C@H]1O[C@@H](n2cnc3c(N)ncnc32)[C@H](O)[C@@H]1O [compound 13, 5′-N-Ethylcarboxamidoadenosine] | 0.56 |  |  | EC50 [1, 6]: 0.3 µM; EC50 [1, 7]: 0.54 µM |
| NC(=O)C1=CN([C@@H]2O[C@H](COP(=O)(O)OP(=O)(O)OC[C@H]3O[C@@H](n4cnc5c(N)ncnc54)[C@H](OP(=O)(O)O)[C@@H]3O)[C@@H](O)[C@H]2O)C=CC1 [compound 16, NADPH tetrasodium] | 0.81 |  |  | EC50 [1, 6]: 18.2 µM; EC50 [1, 7]: 22.4 µM |
| O=c1c(O)c(-c2ccc(O)c(O)c2)oc2cc(O)cc(O)c12 [Quercetin] |  |  |  | coincident reporter response (FLuc and NLuc) [2]: elicits a coincidence response from both FLuc and NLuc; modulation of endogenous Parkin expression [2]: genuine modulator of endogenous Parkin expression |
